Reference: a melting point compilation (Tetko et al.; mined from patent text by program, amines drawn as free bases though some values may be those of a salt)

melting point [°C] | Compound
262 to 263 | CC1CCc2c(N3CCN(C)CC3)c(F)cc3c(=O)c(C(=O)O)cn1c23 (stereo not given)
135 to 139 | CCOC(=O)[C@H](CCC1CCCCC1)N[C@H]1COc2ccccc2N(CC(=O)O)C1=O
260 to 264 | O=c1c2c(Cc3ccccc3C(F)(F)F)n[nH]c2c2cccnc2n1-c1cccc(C(F)(F)F)c1
140 to 142 | CC(=O)Nc1c(C(N)=O)nnn1Cc1ccccc1Cl
201 to 205 | Cc1ccc(S(=O)(=O)NC(=O)C(C)c2ccc3cc(OCc4ccc5ccccc5n4)ccc3c2)cc1 (stereo not given)
210 to 214 | Cc1cc2c(cc1S(=O)(=O)c1cc(Cl)cc(Cl)c1)OC(C(=O)O)O2 (stereo not given)
185 to 186 | Cc1cc(COc2ccc(F)c(C(N)=O)c2F)ccn1
156 to 159 | CC(C)N1CCN(c2ccc(N)cc2)C(=O)C1
152 to 153 | O=C(Nc1cccc(C(F)(F)F)c1)c1cccnc1NCc1ccncc1
206 to 207 | CCOC(=O)c1ccc(-c2nc(N)sc2Cc2ccc(S(C)(=O)=O)cc2)cc1
88 | CCOC(=O)c1c(C(Cl)Cl)nc2c(C(F)(F)F)cccc2c1O
135 | c1ccc2c3c([nH]c2c1)CCC3
223 to 225 | CON1CCC2(CC1)C(O)=C(c1c(C)cc(C)cc1C)C(=O)N2CC1CC1
126 to 128 | CC(=O)Nc1cc(O)c(C(=O)CCCCCl)cc1Cl
230 to 231 | Cc1noc(NC(=O)N2CCN(c3nc(-c4cccc(C(F)(F)F)c4)cs3)CC2)c1C
190 to 191 | Cc1[nH]cnc1CCNC(=NCCSCc1nc[nH]c1C)NC#N
174 to 176 | O=C(O)c1ccccc1-c1cc(-c2ccc(Cl)cc2)on1
48 to 49 | BrCCC1c2ccccc2-c2ccccc21
268 to 281 | CC(C)Oc1ccc2c(=O)c3ccc(O)cc3oc2c1
60 to 67 | Cc1cc(NNC(=O)OC(C)(C)C)c([N+](=O)[O-])c(N(Cc2ccccc2)Cc2ccccc2)n1
73 to 74 | COc1cc2c(cc1OCc1ccccc1)CCN(Cc1ccccn1)C2
156 to 159 | Cc1ccccc1C(=O)NCN1CCN(c2cccc(C#N)c2)CC1
114 to 115 | CCC1Oc2ccc(C(C)C(=O)O)cc2C(=O)C1C (stereo not given)
44 to 45 | Cc1sc(C=O)c(C)c1Br

melting point [°C] | Compound
106 to 107 | Cc1cc(C)c2c(C)coc2c1Cc1ccc(C(C)C)cc1
62 to 63 | O=C(O)CCCCCCCCCCOc1ccccc1OCc1ccccc1
57 to 59 | CCN(CC)C(=O)c1ccccc1-c1ccc(F)cc1
67 to 68 | CCc1cc(Cl)cnc1N
180 to 184 | O=S1(=O)NCN(CCF)c2cc(Cl)cc(Cl)c21
61 to 63 | CNC(=O)n1nc(Oc2ncc(C(F)(F)F)cc2Cl)cc1C(F)(F)F
186 to 188 | CN(C)C1CCN(c2nc(N3CCOCC3)c3ncnc(OCc4ccccc4)c3n2)CC1
187 to 189 | CCOC(=O)CC(=O)CC(=O)c1cccnc1
172 | COC(=O)C1Oc2ccc(Cl)cc2C(c2ccccc2)(c2ccccc2)O1 (stereo not given)
153 to 155 | CS(=O)(=O)O[C@@H]([C@H](OS(C)(=O)=O)[C@H](Cc1ccccc1)NC(=O)OCc1ccccc1)[C@H](Cc1ccccc1)NC(=O)OCc1ccccc1
248 to 250 | COc1cc(-c2csc(N)n2)cc([N+](=O)[O-])c1O
204 to 210 | Cn1c(CO)nc2ccc(Cl)nc21
99 to 101 | COc1ccc2c(=O)cc(C(OC)OC)oc2c1
40 | CCCCN(c1nc(NCC(=O)OCC)nc(N(CCCC)C2CC(C)(C)NC(C)(C)C2)n1)C1CC(C)(C)NC(C)(C)C1
146 to 148 | Cc1cccc(-n2nc3c(c2OS(=O)(=O)C(F)(F)F)CCC3)n1
227 to 228 | Cc1ccc(C2=Cc3cc(C)c(C)cc3C2)cc1
240 to 242 | CC(C)NC(=O)c1cc(Cl)nc(Cl)c1NC(=O)c1cc(C(F)(F)F)nn1-c1ncccc1Cl
114 | COc1ccc(O)c(C(C)(O)c2ccccc2)c1 (stereo not given)
51.5 to 52.5 | Cc1cnc(C#N)n1Cc1ccccc1
158 to 160 | COc1ccc(CN2CCc3cc(O)ccc3C2)cc1
206 to 210 | NC(=O)NC1CCCc2sc(Br)cc21 (stereo not given)
99 to 100 | C=CC(=O)Oc1ccc(NS(=O)(=O)CC)cc1
248 to 249 | Cn1cc(S(C)=O)c(=O)c2ccc(Br)cc21 (stereo not given)
80 to 81 | O=C(COc1ccccc1)N[C@@H](Cc1ccccc1)C(=O)CSCc1ccsc1

melting point [°C] | Compound
212 to 214 | Nc1ccc2nc(-c3ccccc3)oc2c1
28 to 30 | CC(Cl)CCC(=O)c1ccccc1 (stereo not given)
182 to 185 | O=C1N(c2ccc(Cl)cc2)c2ncccc2C1(Cc1ccccc1)Cc1ccncc1 (stereo not given)
165 | O=c1ncc(Cl)cn1CSc1ccc([N+](=O)[O-])cc1
122 to 123 | CC(Oc1ccc(COc2ccc(Cl)cc2Cl)cc1)C(=O)O (stereo not given)
75 to 76 | OC(CSc1ncccn1)CN1CCN(C(c2ccc(F)cc2)c2ccc(F)cc2)CC1 (stereo not given)
87 to 88 | Cc1nc(S(=O)(=O)CC(=O)OCc2cccs2)nc(C)c1Br
55 to 57 | CCOC(=O)[C@@H]1CCCN1C(=O)C1=Cc2ccccc2CC1
168 to 172 | CC1CCC2(c3c[nH]cn3)Cc3ccccc3C12 (stereo not given)
56 to 58 | CCOC(=O)c1c(C)n(C(C)=O)c(=O)n1C(C)=O
118 | C#CCOc1ccc2ccc(=O)oc2c1
125 | Cc1cc(Oc2ccc(NC(=O)c3ccccc3C(c3ccc(O)cc3)c3ccc(O)cc3)cn2)cc(C)c1Cl
138 to 139 | CS(=O)(=O)N1C[C@@H](P(=O)(c2ccccc2)c2ccccc2)C[C@H]1CO
154 to 156 | COc1ccc(-n2nc(CCC(=O)NO)cc2-c2ccc(Cl)cc2)cc1
165 | CCOc1ccc2c(c1)n(C1CCCCC1)c(=O)n2Cc1ccc(S(=O)(=O)NC(C)(C)CC)cc1
119 to 121 | CC(=O)c1nc2ccc(OCC(F)(F)C(F)F)cc2cc1O
206 to 208 | CCc1cc(C(=O)c2ccccc2Cl)c(-n2c(CNC(=O)c3ccc(Cl)c(Cl)c3)nnc2C2CCCCC2)s1
116 to 118 | CCCCCCNC(=O)c1cnc2cccc(C)n2c1=O
140 to 143 | CCCNc1ccc(C(=O)N2CCCC(CC(=O)NC(C)C)c3ccccc32)c(Cl)c1 (stereo not given)
146 to 148 | CC(C)(C)OC(=O)N1CCC(Oc2ccc(C3=NNC(=O)CC3)c(F)c2)CC1
> 270 | O=C(O)c1ccc(C2CCNCC2)cc1
135 to 136 | Cc1cn(S(C)(=O)=O)c2c1C(=O)CC(c1cccs1)C2 (stereo not given)
292 to 295 | Cc1c2c(cc3c(=O)c4c(F)cccc4oc13)CC(C(=O)O)O2 (stereo not given)

Compound | melting point [°C]
Brc1coc(-c2cn([C@H]3CN4CCC3CC4)nn2)c1 | 129
COC(=O)COc1cc2c(c3c1c(C(=O)C(N)=O)c(C)n3Cc1ccccc1)CCCC2 | 115 to 125
CN1CCN(c2ccc(N)cc2C#N)CC1 | 45 to 46
Cc1ccc(NC(=O)NN2CCN(CCc3c[nH]c4ccccc34)CC2)cc1 | 201 to 203
